Active and inactive are the calls of the source. No cut-off for these calls is given here.
Assays:
[1] = molecular target: T1, Lysine-specific histone demethylase 1A (Homo sapiens, UniProt O60341); assay: Potency index, ratio of IC50 for NCL1 to IC50 for test compound against full length human fusion His6 tagged LSD1 expressed in Escherichia coli BL21(DE3) cells
[2] = tested on: SH-SY5Y; assay: Antiproliferative activity against human SH-SY5Y cells assessed as growth inhibition after 48 h by MTT assay; type: functional
[3] = molecular target: T2, Amine oxidase [flavin-containing] A (Homo sapiens, UniProt P21397); assay: Inhibition of MAOA (unknown origin)
T2 sequence (P21397 whole entry): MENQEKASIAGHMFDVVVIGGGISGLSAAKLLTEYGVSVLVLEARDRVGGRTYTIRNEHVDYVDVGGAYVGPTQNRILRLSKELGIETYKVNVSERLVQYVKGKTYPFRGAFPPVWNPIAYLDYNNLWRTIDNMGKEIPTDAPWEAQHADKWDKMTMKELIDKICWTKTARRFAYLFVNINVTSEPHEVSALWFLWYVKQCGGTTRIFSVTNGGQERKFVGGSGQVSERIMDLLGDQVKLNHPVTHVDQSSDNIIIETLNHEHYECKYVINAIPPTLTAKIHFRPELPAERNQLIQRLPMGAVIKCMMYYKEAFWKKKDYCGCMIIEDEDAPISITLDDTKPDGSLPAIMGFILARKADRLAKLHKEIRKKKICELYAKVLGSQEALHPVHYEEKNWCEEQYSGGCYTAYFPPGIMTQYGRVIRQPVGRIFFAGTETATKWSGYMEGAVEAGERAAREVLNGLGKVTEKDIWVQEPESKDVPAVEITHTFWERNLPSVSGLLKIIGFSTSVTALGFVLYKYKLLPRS

[4] = molecular target: T1, Lysine-specific histone demethylase 1A; assay: Inhibition of LSD1 in human SH-SY5Y cells assessed as induction of H3K4me2 accumulation at 30 uM after 24 hrs by Western blot method; type: cell-based
[5] = molecular target: T3, Amine oxidase [flavin-containing] B (Homo sapiens, UniProt P27338); assay: Inhibition of MAOB (unknown origin)
T3 sequence (P27338 whole entry): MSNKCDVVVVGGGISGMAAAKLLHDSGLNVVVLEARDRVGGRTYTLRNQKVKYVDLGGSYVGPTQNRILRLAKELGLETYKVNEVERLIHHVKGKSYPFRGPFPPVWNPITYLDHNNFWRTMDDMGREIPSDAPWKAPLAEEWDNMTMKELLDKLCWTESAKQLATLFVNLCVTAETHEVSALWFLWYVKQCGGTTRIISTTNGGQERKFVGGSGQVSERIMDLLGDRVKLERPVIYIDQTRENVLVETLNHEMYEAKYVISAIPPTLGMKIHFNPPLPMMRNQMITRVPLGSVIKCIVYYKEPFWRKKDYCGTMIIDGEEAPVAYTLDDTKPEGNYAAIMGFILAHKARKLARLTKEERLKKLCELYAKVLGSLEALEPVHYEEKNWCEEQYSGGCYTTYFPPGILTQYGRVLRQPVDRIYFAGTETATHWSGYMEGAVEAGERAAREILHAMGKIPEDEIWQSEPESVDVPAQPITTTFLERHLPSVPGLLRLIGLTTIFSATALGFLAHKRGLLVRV

[6] = molecular target: T1, Lysine-specific histone demethylase 1A; assay: Inhibition of full length human fusion His6 tagged LSD1 expressed in Escherichia coli BL21(DE3) cells assessed as FAD-NCL1 adduct formation at 100 uM incubated for 22 hrs by MALDI-TOF mass spectrometry
[7] = molecular target: T1, Lysine-specific histone demethylase 1A; assay: Inhibition of LSD1 in human SH-SY5Y cells assessed as induction of H3K4me2 accumulation at 10 uM after 24 hrs by Western blot method; type: cell-based
[8] = molecular target: T1, Lysine-specific histone demethylase 1A; assay: Inhibition of full length human fusion His6 tagged LSD1 expressed in Escherichia coli BL21(DE3) cells using H3K4me2 peptide substrate preincubated for 5 mins by peroxidase-coupled method
[9] = molecular target: T1, Lysine-specific histone demethylase 1A; assay: Time-dependent inhibition of full length human fusion His6 tagged LSD1 expressed in Escherichia coli BL21(DE3) cells assessed as enzyme inactivation using H3K4me2 peptide substrate preincubated for 5 mins by peroxidase-coupled method
[10] = tested on: HeLa; assay: Antiproliferative activity against human HeLa cells assessed as growth inhibition after 48 h by MTT assay; type: functional
[11] = molecular target: T1, Lysine-specific histone demethylase 1A; assay: Time-dependent inhibition of full length human fusion His6 tagged LSD1 expressed in Escherichia coli BL21(DE3) cells using H3K4me2 peptide substrate preincubated for 5 mins by peroxidase-coupled method

Row | SMILES | Ratio IC50 [1] | GI50 [2] [µM] | IC50 [3] [µM] | inhibition [4] | IC50 [5] [µM] | inhibition [6] | inhibition [7] | IC50 [8] [µM] | Kinact [9] [s⁻¹] | GI50 [10] [µM] | Ki [11] [µM] | inhibition ([11]; TDE = time-dependent effect)
1 | CN1CCN(C(=O)CNC2CC2c2cccc(OCC[C@H](NC(=O)c3ccccc3)C(=O)NCc3ccccc3)c2)CC1 (some centres not stated) | 6 | 42 | > 100 | Active | > 100 | Active | Active | 0.38 | 0.0035 | 109 | 2.4 | tde
2 | CN1CCN(C(=O)CNC2CC2c2cccc(O)c2)CC1 (configuration not stated) | – | > 240 | – | – | – | – | – | 2.4 | – | > 240 | – | –
3 | NC1CC1c1cccc(OCC[C@H](NC(=O)c2ccccc2)C(=O)NCc2ccccc2)c1 (some centres not stated) | – | 27 | – | – | – | – | – | – | – | 13 | – | –
